Source: patent US10457655B2, “Compounds and compositions for inhibition of FASN” (FORMA Therapeutics, Inc., priority 2013, dated 2019)

Key:
PC3 cells = assay: Cell Proliferation Assays for FASN Inhibitors (PC3 cells, MTT); type: cell-based; conditions: Homo sapiens, PC-3, 96 h, read-out: IC50 (uM) < 0.5, 10% lipid reduced serum, 4 days, Table 3-1
Protocol: The effects of the FASN inhibitors on cultured cancer cell proliferation were studies with cell proliferation assays. PC3 cells were maintained at standard culture media (F12K media supplemented with 10% fetal bovine serum, 1×MEM nonessential amino acid and 1× penicillin/streptomycin). 2000-3000 cells/100 μL/well was seeded in a 96-well clear culture plate. The cells were incubated overnight in 5% CO2 at 37° C. for attachment. Cell media were removed and replaced with F12K media containing 10% lipid reduced serum and compound. The final DMSO concentration is 0.1%. The cells were maintained in 5% CO2 at 37° C. for 4 days. The viability of cells was determined by MTT assays. The IC50 of a given compound was calculated by fitting the dose response curve with a four parameter logistic equation.

FASN enzyme = FASN enzyme (Homo sapiens, UniProt P49327); assay: Enzymatic Assay for FASN Inhibitors; type: biochemical
Sequence of FASN enzyme (P49327 whole entry): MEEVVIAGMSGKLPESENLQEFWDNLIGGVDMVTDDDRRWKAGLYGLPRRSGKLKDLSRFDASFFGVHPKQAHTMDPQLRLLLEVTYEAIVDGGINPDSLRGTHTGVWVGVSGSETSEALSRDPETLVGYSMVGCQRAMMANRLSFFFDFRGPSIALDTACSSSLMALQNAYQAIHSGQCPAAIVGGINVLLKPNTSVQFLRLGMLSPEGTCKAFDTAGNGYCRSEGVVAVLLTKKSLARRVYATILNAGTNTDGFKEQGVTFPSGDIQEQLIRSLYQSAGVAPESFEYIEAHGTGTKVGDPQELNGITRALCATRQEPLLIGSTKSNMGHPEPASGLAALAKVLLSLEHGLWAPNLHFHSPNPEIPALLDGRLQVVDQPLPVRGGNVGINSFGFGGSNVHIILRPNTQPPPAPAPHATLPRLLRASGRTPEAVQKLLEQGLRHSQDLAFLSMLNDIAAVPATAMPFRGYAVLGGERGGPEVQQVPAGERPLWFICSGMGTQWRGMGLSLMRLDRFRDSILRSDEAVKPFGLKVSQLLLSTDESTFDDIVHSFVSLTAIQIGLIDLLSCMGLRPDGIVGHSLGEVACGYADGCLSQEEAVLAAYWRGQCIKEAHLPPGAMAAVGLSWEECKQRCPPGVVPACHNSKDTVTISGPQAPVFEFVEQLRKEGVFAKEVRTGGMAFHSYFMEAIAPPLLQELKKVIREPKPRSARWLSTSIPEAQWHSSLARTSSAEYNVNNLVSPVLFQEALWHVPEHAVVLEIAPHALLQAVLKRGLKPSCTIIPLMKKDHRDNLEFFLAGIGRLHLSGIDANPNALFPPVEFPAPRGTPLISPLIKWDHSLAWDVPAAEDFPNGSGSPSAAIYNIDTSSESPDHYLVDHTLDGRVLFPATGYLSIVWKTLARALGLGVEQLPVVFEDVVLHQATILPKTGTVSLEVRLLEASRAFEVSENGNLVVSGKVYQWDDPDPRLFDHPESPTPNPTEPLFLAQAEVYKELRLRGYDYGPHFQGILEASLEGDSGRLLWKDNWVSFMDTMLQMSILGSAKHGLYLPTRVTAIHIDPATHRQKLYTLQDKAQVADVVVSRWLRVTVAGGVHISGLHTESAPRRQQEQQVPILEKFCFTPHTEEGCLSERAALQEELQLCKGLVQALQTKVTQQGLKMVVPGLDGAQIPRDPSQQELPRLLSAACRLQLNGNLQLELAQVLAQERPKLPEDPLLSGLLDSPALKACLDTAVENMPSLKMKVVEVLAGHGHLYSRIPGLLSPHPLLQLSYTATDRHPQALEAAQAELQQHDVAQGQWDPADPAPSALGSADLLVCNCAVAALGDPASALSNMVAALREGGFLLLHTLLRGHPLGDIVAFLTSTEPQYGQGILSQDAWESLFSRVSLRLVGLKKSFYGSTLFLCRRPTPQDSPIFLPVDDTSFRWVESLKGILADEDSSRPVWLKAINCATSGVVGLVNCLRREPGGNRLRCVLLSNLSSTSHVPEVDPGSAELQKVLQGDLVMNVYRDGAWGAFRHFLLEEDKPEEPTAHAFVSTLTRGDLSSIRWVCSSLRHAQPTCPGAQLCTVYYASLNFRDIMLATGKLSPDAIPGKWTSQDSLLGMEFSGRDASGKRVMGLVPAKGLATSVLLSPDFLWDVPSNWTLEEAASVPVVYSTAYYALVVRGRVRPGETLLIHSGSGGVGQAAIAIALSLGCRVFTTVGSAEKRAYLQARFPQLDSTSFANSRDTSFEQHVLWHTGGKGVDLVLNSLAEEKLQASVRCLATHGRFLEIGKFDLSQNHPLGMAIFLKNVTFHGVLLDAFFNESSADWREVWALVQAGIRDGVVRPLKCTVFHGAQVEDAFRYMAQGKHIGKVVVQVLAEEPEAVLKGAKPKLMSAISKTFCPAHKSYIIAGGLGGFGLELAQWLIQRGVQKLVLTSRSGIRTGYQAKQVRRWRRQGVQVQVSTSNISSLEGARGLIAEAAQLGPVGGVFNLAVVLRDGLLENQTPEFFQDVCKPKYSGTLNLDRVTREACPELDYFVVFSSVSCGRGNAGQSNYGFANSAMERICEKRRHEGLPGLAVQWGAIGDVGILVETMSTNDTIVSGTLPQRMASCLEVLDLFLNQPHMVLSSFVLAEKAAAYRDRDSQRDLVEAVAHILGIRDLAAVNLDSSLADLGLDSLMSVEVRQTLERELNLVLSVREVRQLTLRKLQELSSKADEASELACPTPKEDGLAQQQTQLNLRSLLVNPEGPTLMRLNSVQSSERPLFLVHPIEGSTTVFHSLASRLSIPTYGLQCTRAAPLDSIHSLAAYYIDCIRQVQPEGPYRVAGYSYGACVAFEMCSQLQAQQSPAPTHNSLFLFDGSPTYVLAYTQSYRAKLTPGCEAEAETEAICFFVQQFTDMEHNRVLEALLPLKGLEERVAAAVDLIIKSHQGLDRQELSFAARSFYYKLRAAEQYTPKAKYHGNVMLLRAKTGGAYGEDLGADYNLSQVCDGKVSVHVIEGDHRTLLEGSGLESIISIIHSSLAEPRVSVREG
In short: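 40 nM FASN preincubated with compound 60 min at 25° C in HEPES pH 7.3 buffer with 0.04% Triton X-100. Then 20 μM acetyl-CoA, 60 μM malonyl-CoA and 100 μM NADPH added for 90 min, quenched with CPM thiol probe; fluorescence 360/530 nm, IC50 by four-parameter fit.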

IC50 (PC3 cells) [µM] | IC50 (FASN enzyme) [nM] | Structure (SMILES)
< 0.5 | < 500 | O=C(c1ccc(-c2ccc3ncccc3c2)cc1F)N1CCN(C(=O)C2(O)CC2)CC1 [1-[(4-{[2-fluoro-4-(quinolin-6-yl)phenyl]carbonyl}piperazin-1-yl)carbonyl]cyclopropan-1-ol]
< 0.5 | < 500 | Cn1ccc2cc(-c3ccc(C(=O)N4CCN(C(=O)C5(O)CC5)CC4)cc3Cl)ccc21 [1-[(4-{[3-chloro-4-(1-methyl-1H-indol-5-yl)phenyl]carbonyl}piperazin-1-yl)carbonyl]cyclopropan-1-ol]
< 0.5 | < 500 | O=C(c1ccc(-c2cnc3ccccc3c2)c(Cl)c1)N1CCN(C(=O)C2(O)CC2)CC1 [1-[(4-{[3-chloro-4-(quinolin-3-yl)phenyl]carbonyl}piperazin-1-yl)carbonyl]cyclopropan-1-ol]
< 0.5 | < 500 | O=C(c1ccc(-c2ccc3ncccc3c2)c(Cl)c1)N1CCN(C(=O)C2(O)CC2)CC1 [1-[(4-{[3-chloro-4-(quinolin-6-yl)phenyl]carbonyl}piperazin-1-yl)carbonyl]cyclopropan-1-ol]
< 0.5 | < 500 | O=C(c1ccc(-c2cnc3ccccc3c2)c(F)c1)N1CCN(C(=O)C2(O)CC2)CC1 [1-[(4-{[3-fluoro-4-(quinolin-3-yl)phenyl]carbonyl}piperazin-1-yl)carbonyl]cyclopropan-1-ol]
< 0.5 | < 500 | Cc1cc(C(=O)N2CCN(C(=O)C3(O)CC3)CC2)ccc1-c1ccc2c(ccn2C)c1 [1-[(4-{[3-methyl-4-(1-methyl-1H-indol-5-yl)phenyl]carbonyl}piperazin-1-yl)carbonyl]cyclopropan-1-ol]
< 0.5 | < 500 | Cc1cc(C(=O)N2CCN(C(=O)C3(O)CC3)CC2)ccc1-c1cnc2ccccc2c1 [1-[(4-{[3-methyl-4-(quinolin-3-yl)phenyl]carbonyl}piperazin-1-yl)carbonyl]cyclopropan-1-ol]
< 0.5 | < 500 | Cc1cc(C(=O)N2CCN(C(=O)C3(O)CC3)CC2)ccc1-c1ccc2ncccc2c1 [1-[(4-{[3-methyl-4-(quinolin-6-yl)phenyl]carbonyl}piperazin-1-yl)carbonyl]cyclopropan-1-ol]
< 0.5 | < 500 | O=C(c1ccc(-c2nc3ccccc3s2)cc1)N1CCN(C(=O)C2(O)CC2)CC1 [1-[(4-{[4-(1,3-benzothiazol-2-yl)phenyl]carbonyl}piperazin-1-yl)carbonyl]cyclopropan-1-ol]
< 0.5 | < 500 | O=C(c1ccc(-c2ccc3scnc3c2)cc1Cl)N1CCN(C(=O)C2(O)CC2)CC1 [1-[(4-{[4-(1,3-benzothiazol-5-yl)-2-chlorophenyl]carbonyl}piperazin-1-yl)carbonyl]cyclopropan-1-ol]
< 0.5 | < 500 | O=C(c1ccc(-c2ccc3scnc3c2)c(Cl)c1)N1CCN(C(=O)C2(O)CC2)CC1 [1-[(4-{[4-(1,3-benzothiazol-5-yl)-3-chlorophenyl]carbonyl}piperazin-1-yl)carbonyl]cyclopropan-1-ol]
< 0.5 | < 500 | O=C(c1ccc(-c2ccc3scnc3c2)c(F)c1)N1CCN(C(=O)C2(O)CC2)CC1 [1-[(4-{[4-(1,3-benzothiazol-5-yl)-3-fluorophenyl]carbonyl}piperazin-1-yl)carbonyl]cyclopropan-1-ol]
< 0.5 | < 500 | Cc1cc(C(=O)N2CCN(C(=O)C3(O)CC3)CC2)ccc1-c1ccc2scnc2c1 [1-[(4-{[4-(1,3-benzothiazol-5-yl)-3-methylphenyl]carbonyl}piperazin-1-yl)carbonyl]cyclopropan-1-ol]
< 0.5 | < 500 | O=C(c1ccc(-c2ccc3scnc3c2)cc1)N1CCN(C(=O)C2(O)CC2)CC1 [1-[(4-{[4-(1,3-benzothiazol-5-yl)phenyl]carbonyl}piperazin-1-yl)carbonyl]cyclopropan-1-ol]
